Calls of active or inactive are those of the source. The rule behind the calls is not given here.
Key:
[1] = tested on: A549; assay: Induction of apoptosis in human A549 cells assessed as increase in cleaved caspase 3 protein expression at 0.3 to 3 uM measured after 18 hrs by western blot analysis; type: functional, cell-based; details: dose 0.3-3 µM
[2] = tested on: A549; assay: Inhibition of MAPK signaling pathway in human A549 cells at 3 uM incubated for 24 hrs by immunoblot analysis; type: cell-based
[3] = AUC (0 to infinity) in Sprague-Dawley rat at 20 mg/kg, po measured after 1 hrs by LC-MS/MS analysis; type: ADME, organism-based; design: route oral, time 1 hrs, dose 20 mg/kg; details: in vivo
[4] = tested on: A549; assay: Antitumor activity against human A549 cells xenografted in BALB/c mouse assessed as tumor growth delay at 50 mg/kg, po treated daily relative to control
[5] = Half life in Sprague-Dawley rat at 2 mg/kg, iv measured after 1 hrs by LC-MS/MS analysis; type: ADME, organism-based; details: in vivo
[6] = molecular target: T1, Heat shock protein HSP90 (Homo sapiens, UniProt P07900+P08238); assay: Inhibition of HSP90 in human A549 cells assessed as downregulation of FAK expression incubated for 24 hrs by immunoblot analysis; type: cell-based; details: dose microM <=3, time 24.0 hrs
[7] = molecular target: T1, Heat shock protein HSP90; assay: Inhibition of HSP90 in human A549 cells assessed as downregulation of Src expression at 0.3 uM by immunoblot analysis; details: time hrs <=24, TDE = time-dependent effect
[8] = Hepatic clearance in human hepatocytes by LC-MS/MS analysis
[9] = Cmax in Sprague-Dawley rat at 2 mg/kg, iv measured after 1 hrs by LC-MS/MS analysis; type: ADME, organism-based; design: route intravenous, time 1 hrs, dose 2 mg/kg; details: in vivo
[10] = Volume of distribution at steady state in Sprague-Dawley rat at 2 mg/kg, iv measured after 1 hrs by LC-MS/MS analysis; type: ADME, organism-based; details: in vivo, read-out: Vdss
[11] = Metabolic stability in Beagle dog hepatocytes assessed as half life by LC-MS/MS analysis; type: ADME, cell-based, Canis lupus familiaris, Hepatocyte
[12] = tested on: A549; assay: Induction of cell cycle arrest in human A549 cells assessed as upregulation of cyclinB1 protein expression at 0.3 uM incubated for 24 hrs by Western blot analysis; type: functional, cell-based
[13] = molecular target: T2, CYP1A2 (Homo sapiens, UniProt P05177); assay: Inhibition of CYP1A2 in human liver microsomes using phenacetin as substrate at 50 uM by LC-MS/MS analysis; type: ADME; details: probe phenacetin
T2 sequence (P05177 whole entry): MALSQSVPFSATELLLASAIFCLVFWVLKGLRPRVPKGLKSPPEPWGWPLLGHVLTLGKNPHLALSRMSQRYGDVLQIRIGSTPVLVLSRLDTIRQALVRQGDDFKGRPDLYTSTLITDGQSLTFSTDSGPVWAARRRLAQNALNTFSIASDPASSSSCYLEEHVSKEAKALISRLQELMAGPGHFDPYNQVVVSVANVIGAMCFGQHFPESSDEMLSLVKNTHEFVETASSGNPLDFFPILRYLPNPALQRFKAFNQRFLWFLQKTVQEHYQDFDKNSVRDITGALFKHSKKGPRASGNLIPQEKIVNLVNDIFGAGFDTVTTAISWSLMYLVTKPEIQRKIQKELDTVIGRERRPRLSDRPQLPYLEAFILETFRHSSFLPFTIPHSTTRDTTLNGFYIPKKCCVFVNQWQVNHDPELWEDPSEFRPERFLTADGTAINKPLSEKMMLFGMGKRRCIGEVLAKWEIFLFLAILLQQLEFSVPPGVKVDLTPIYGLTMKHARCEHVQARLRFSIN

[14] = tested on: A549; assay: Induction of cell cycle arrest in human A549 cells assessed as increases in cdc2 expression at Thr161 at 0.3 uM incubated for 24 hrs by Western blot analysis; type: functional, cell-based
[15] = tested on: A549; assay: Antitumor activity against human A549 cells xenografted in BALB/c mouse assessed as tumor growth inhibition at 25 mg/kg, po treated daily relative to control; details: read-out: TGI
[16] = Tmax in Sprague-Dawley rat at 2 mg/kg, iv measured after 1 hrs by LC-MS/MS analysis; type: ADME, organism-based; details: in vivo
[17] = molecular target: Cytochrome P450 2C9 (Homo sapiens, UniProt P11712); assay: Inhibition of CYP2C9 in human liver microsomes using diclofenac as substrate by LC-MS/MS analysis; type: ADME
[18] = Hepatic clearance in Sprague-Dawley rat by LC-MS/MS analysis; type: ADME, tissue-based, Hepatocyte; details: hepatocytes
[19] = Apparent permeability across apical to basolateral in human Caco2 cells by LC-MS/MS analysis; type: ADME, cell-based; details: Caco-2, read-out: permeability
[20] = Metabolic stability in CD1 mouse hepatocytes assessed as half life by LC-MS/MS analysis; type: ADME, cell-based, Hepatocyte
[21] = tested on: A549; assay: Antimigratory activity against human A549 cells assessed as inhibition of migration at 0.1 to 3 uM incubated for 6 hrs by crystal violet staining based by Boyden chamber method; type: functional, cell-based; details: dose 0.1-3 µM
[22] = molecular target: T3, Cytochrome P450 2C8 (Homo sapiens, UniProt P10632); assay: Inhibition of CYP2C8 in human liver microsomes using amodiaquine as substrate by LC-MS/MS analysis; type: ADME
T3 sequence (P10632 whole entry): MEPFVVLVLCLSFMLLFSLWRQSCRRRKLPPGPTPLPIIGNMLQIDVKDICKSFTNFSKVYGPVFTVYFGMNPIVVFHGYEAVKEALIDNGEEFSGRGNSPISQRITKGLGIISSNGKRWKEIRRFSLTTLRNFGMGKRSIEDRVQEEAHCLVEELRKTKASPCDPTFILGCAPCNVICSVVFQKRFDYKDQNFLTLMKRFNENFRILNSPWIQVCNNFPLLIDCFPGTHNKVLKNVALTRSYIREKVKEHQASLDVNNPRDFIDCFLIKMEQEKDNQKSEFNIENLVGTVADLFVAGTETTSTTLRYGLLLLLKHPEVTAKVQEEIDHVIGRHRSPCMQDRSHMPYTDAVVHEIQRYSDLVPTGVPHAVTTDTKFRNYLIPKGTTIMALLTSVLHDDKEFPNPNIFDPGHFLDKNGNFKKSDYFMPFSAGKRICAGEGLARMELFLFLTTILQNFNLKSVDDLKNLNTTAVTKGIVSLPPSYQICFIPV

[23] = molecular target: T4, Cytochrome P450 1A2 (Homo sapiens, UniProt P05177); assay: Inhibition of CYP1A2 in human liver microsomes using phenacetin as substrate by LC-MS/MS analysis; type: ADME
T4 sequence (P05177 whole entry): T2 sequence (P05177 whole entry)

[24] = Metabolic stability in Sprague-Dawley rat hepatocytes assessed as half life by LC-MS/MS analysis; type: ADME, cell-based, Hepatocyte
[25] = tested on: A549; assay: Antitumor activity against human A549 cells xenografted in BALB/c mouse assessed as tumor growth delay at 25 mg/kg, po treated daily relative to control
[26] = tested on: A549; assay: Induction of cell cycle arrest in human A549 cells assessed as M stage arrest by measuring upregulation of p-MPM-2 expression at 0.3 uM incubated for 24 hrs by Western blot analysis; type: functional, cell-based
[27] = molecular target: T1, Heat shock protein HSP90; assay: Inhibition of HSP90 in human A549 cells assessed as downregulation of FAK expression at 3 uM by immunoblot analysis; type: cell-based; details: time hrs <=24, TDE = time-dependent effect

Chain of Cytochrome P450 2C9 (P11712 whole entry): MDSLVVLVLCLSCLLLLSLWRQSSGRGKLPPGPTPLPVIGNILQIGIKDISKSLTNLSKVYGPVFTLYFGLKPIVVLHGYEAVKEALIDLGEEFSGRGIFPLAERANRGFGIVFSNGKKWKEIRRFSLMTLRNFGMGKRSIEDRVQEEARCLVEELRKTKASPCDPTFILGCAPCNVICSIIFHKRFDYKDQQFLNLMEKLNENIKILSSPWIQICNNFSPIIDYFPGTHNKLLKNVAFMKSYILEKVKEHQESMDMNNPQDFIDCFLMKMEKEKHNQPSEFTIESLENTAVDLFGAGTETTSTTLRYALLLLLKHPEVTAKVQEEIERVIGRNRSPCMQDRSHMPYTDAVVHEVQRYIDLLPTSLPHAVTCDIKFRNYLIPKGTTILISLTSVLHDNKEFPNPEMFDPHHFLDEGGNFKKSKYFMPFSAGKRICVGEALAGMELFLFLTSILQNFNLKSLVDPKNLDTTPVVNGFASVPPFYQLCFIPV

## CCN(C(=O)c1cc(C(C)C)c(O)cc1O)c1cccnc1
[1]
  Activity: Active
[2]
  inhibition: Dose-Dependent Effect
[3]
  AUC: 811 ng·h/mL
[4]
  Activity: 72%
[5]
  half-life: 174 min
[6]
  inhibition: Dose-Dependent Effect
[7]
  inhibition: Tde
[8]
  CLhep predicted: 14.7 mL/min/kg
[9]
  Cmax: 1580 ng/mL
[10]
  Vd: 4.59 L/kg
[11]
  half-life: 39.2 min
[12]
  Activity: Active
[13]
  inhibition at 50 µM: 50.6%
[14]
  Activity: Active
[15]
  inhibition in vivo at 25 mg/kg: 46.7%
[16]
  Tmax: 1.8 min
[17]
  IC50: 15 µM
[18]
  CLhep predicted: 51.2 mL/min/kg
[19]
  Papp A→B: 31.9 ×10⁻⁶ cm/s
[20]
  half-life: 5.31 min
[21]
  Activity: Active
[22]
  IC50: > 50 µM
[23]
  IC50: > 50 µM
[24]
  half-life: 11.2 min
[25]
  Activity: 41%
[26]
  Activity: Active
[27]
  inhibition: Tde

Reference: ChEMBL document CHEMBL4814073, “Ring-opening of five-membered heterocycles conjugated 4-isopropylresorcinol scaffold-based benzamides as HSP90 inhibitors suppressing tumor growth in vitro and in vivo” (Eur J Med Chem, 2021)
